Patent publication US20260049072A1, “HETEROCYCLIC COMPOUND FOR INDUCING DEGRADATION OF MUTANT KRAS PROTEIN” (Astellas Pharma Inc., priority 2022, published 2026)
Like-named read-outs stand apart in the source and are kept apart here.

Tests used:
Assay type in all cases: cell-based
MIA PaCa-2 cells = assay: Non-anchorage-dependent cell growth inhibition (spheroid 3D culture), MIA PaCa-2; settings: Homo sapiens, MIA PaCa-2, 144 h, read-out: MIA PaCa-2 IC50
Method: (§1) Test Example 3: Evaluation of Non-Anchorage-Dependent Cell Growth Inhibitory Activity on Human KRAS G12V Mutant-Positive Pancreatic Cancer Line PA-TU-8902, Human KRAS G12D Mutant-Positive Pancreatic Cancer Line AsPC-1 or Human KRAS G12C Mutant-Positive Pancreatic Cancer Line MIA PaCa-2
(§2) The non-anchorage-dependent cell growth inhibitory activities of subject compounds were evaluated by spheroid 3D cell culture.
(§3) PA-TU-8902 cells, AsPC-1 cells or MIA PaCa-2 cells (RIKEN BRC, RCB2094) were seeded at 36 µL/well on a low-cell-adhesive round bottom 384-well plate (Prime Surface: from Sumitomo Bakelite) to give 5×10^2 cells per well. The PA-TU-8902 cells were under the same conditions as in Test Example 1-1, and the AsPC-1 cells were under the same conditions as in Test Example 1-2. For the MIA PaCa-2 cells, RPMI-1640 medium containing 10% fetal bovine serum was used in the presence of 5% CO2 at 37° C.
(§4) The next day, the subject compounds (6-9 points having final concentrations in the range of 3 μM to 0.3 nM) and DMSO, which was the solvent for the subject compounds, as a negative control were diluted 100-fold with a fresh medium and were each added at 4 μL per well. After culturing in the presence of 5% CO2 at 37° C. for six days, CellTiter-Glo 2.0 (from Promega) was added at 20 μL per well. After stirring with a plate mixer (from FINEPCR) at normal temperature for an hour, the luminescent signals were measured with ARVO X3 (from PerkinElmer).
(§5) With the signaling value in treatment with DMSO taken as 0% inhibition and with the signaling value in the medium alone without cells taken as 100% inhibition, the 50% inhibition values (IC50) were calculated by Sigmoid-Emax model nonlinear regression analysis.

[1] = system: phosphorylation of ERK (Thr202/Tyr204); assay: ERK phosphorylation inhibitory activity, cell ELISA, PA-TU-8902; settings: Homo sapiens, read-out: IC50 (ERK phosphorylation inhibition)
Method: Test Example 2: Evaluation of ERK Phosphorylation Inhibitory Activity on Human KRAS G12V Mutant-Positive Pancreatic Cancer Line PA-TU-8902
The ERK phosphorylation inhibitory activities of subject compounds were evaluated by measuring phosphorylation of the 202th threonine (Thr202) and the 204th tyrosine (Tyr204) of ERK located downstream of the KRAS signal by cell ELISA.
PA-TU-8902 cells were seeded at 36 µL/well on a 384-well plate (from Greiner bio-one) to give 5.0×10^3 cells per well. The cell culture conditions were the same conditions as in Test Example 1-1.
The next day, the subject compounds (9 points having final concentrations in the range of 3 μM to 0.3 nM), trametinib (MEK inhibitor) of a final concentration of 300 nM as a positive control and DMSO, which was the solvent for the subject compounds, as a negative control were diluted 100-fold with a fresh medium and were each added at 4 μL per well, followed by culturing for 24 hours. After culturing, a 30% glyoxal solution (40% glyoxal [from Nacalai Tesque] was diluted with PBS) was quickly added at 30 μL per well, and the plate was allowed to stand for an hour and 30 minutes at room temperature to thus immobilize the cells. Then, the plate was centrifuged (110×g, seven seconds, hereinafter centrifugation was performed under the same conditions unless otherwise specified) to remove the supernatant, and 0.1% Triton X-100-containing PBS was added at 20 μL per well. After allowing the plate to stand for 10 minutes at room temperature, the supernatant was removed by centrifugation, and the same operation was further repeated. Next, 0.5% SDS-containing PBS was added at 20 μL per well. The plate was allowed to stand at room temperature for 30 minutes and was then centrifuged to remove the supernatant. Subsequently, a blocking solution (Intercept Blocking Buffer) was added at 20 μL per well, and the plate was allowed to stand for an hour at room temperature. The supernatant was removed by centrifugation, and an ERK (Thr202/Tyr204) phosphorylation antibody (Phospho-p44/42 MAPK (Erk 1/2) (Thr202/Tyr204) (D13.14.4E) XP Rabbit mAb; from Cell Signaling Technology) diluted 2,500-fold with the blocking solution was added at 15 μL per well as a primary antibody. The plate was allowed to stand at 4° C. overnight.
The next day, the plate was centrifuged to remove the supernatant, and 0.05% Tween-20-containing PBS (from Thermo Scientific; 20×PBS Tween-20 was diluted 20-fold with ion exchange water and used) was added at 50 μL per well. The supernatant was removed by centrifugation to thus wash each well. The washing was performed three times in total. After washing, an anti-rabbit IgG antibody diluted 1,000-fold with the blocking solution was added at 15 μL per well as a secondary antibody, and the plate was allowed to stand for an hour at room temperature. The plate was centrifuged to remove the supernatant, and each well was washed three times with 0.05% Tween-20-containing PBS in the same manner as after the primary antibody reaction. Centrifugation after the third washing was performed at 171×g for 17 seconds. After removing the supernatant, the plate was dried as it was with air at room temperature for three hours or more, and the 800-nm fluorescent signals were measured with Aerius.
With the signaling value at the time of addition of DMSO taken as 0% inhibition and with the signaling value at the time of addition of 300 nM trametinib taken as 100% inhibition, the 50% inhibition values (IC50) were calculated by Sigmoid-Emax model nonlinear regression analysis.

AsPC-1 cells = assay: Non-anchorage-dependent cell growth inhibition (spheroid 3D culture), AsPC-1; settings: Homo sapiens, ASPC1, 144 h, read-out: AsPC-1 IC50
Method: as §1, §2, §3, §4, §5

[2] = KRAS G12C mutant-positive, 3D spheroid, six days, CellTiter-Glo 2.0
[3] = PaTu 8902, PA-TU-8902 cells, 24 hours, 100% = 300 nM trametinib
[4] = KRAS G12D mutant-positive, 3D spheroid, six days, CellTiter-Glo 2.0

SMILES | IC50 (MIA PaCa-2 cells; [2]) [nM] | IC50 [1, 3] [nM] | IC50 (AsPC-1 cells; [4]) [nM] | IC50 (MIA PaCa-2 cells) [nM] | IC50 ([1]; PaTu 8902, 24 h) [nM] | IC50 (AsPC-1 cells) [nM]
CO[C@@H](C)COc1nc(NC2CN(C(=O)O[C@H]3C[C@@H](N(C)C)C3)C2)c2cc(C3CC3)c(-c3c(C)c(F)cc4[nH]ncc34)c(OCc3ccc(-c4cn([C@H](C(=O)N5C[C@H](O)C[C@H]5C(=O)N[C@@H](CO)c5ccc(N6CCOC6=O)cc5)C(C)C)nn4)cc3)c2n1 (atropisomer, axis not shown) [Example 4] | 22 | 48 | 38 |  |  | 
COC(C)(C)COc1cc(OC2CN(C(=O)N3CC(CN(C)C)C3)C2)c2cc(C3CC3)c(-c3c(C)c(F)cc4[nH]ncc34)c(OCc3ccc(-c4cn([C@H](C(=O)N5C[C@H](O)C[C@H]5C(=O)N[C@@H](CO)c5ccc(-n6cncn6)cc5)C(C)C)nn4)cc3)c2n1 (atropisomer, axis not shown) [Example 9] | 9 | 12 | 19 |  |  | 
CO[C@@H](C)COc1nc(OC2CN(C(=O)NCCN(C)C)C2)c2cc(C3CC3)c(-c3c(C)c(F)cc4[nH]ncc34)c(OCc3ccc(-c4cn([C@H](C(=O)N5C[C@H](O)C[C@H]5C(=O)N[C@@H](CO)c5ccc(-c6scnc6C)cc5)C(C)C)nn4)cc3)c2n1 (atropisomer, axis not shown) [Example 17] | 10 | 23 | 16 |  |  | 
CNCCNC(=O)N1CC(Oc2nc(OC[C@H](C)OC)nc3c(OCc4ccc(-c5cn([C@H](C(=O)N6C[C@H](O)C[C@H]6C(=O)N[C@@H](CO)c6ccc(-c7scnc7C)cc6)C(C)C)nn5)cc4)c(-c4c(C)c(F)cc5[nH]ncc45)c(C4CC4)cc23)C1 (atropisomer, axis not shown) [Example 18] | 26 | 33 | 32 |  |  | 
CO[C@@H](C)COc1nc(N(C)[C@H]2CCN(C(=O)NCCN(C)C)C2)c2cc(C3CC3)c(-c3c(C)c(F)cc4[nH]ncc34)c(OCc3ccc(-c4cn([C@H](C(=O)N5C[C@H](O)C[C@H]5C(=O)N[C@@H](CO)c5ccc(-c6scnc6C)cc5)C(C)C)nn4)cc3)c2n1 (atropisomer, axis not shown) [Example 19] | 27 | 31 | 16 |  |  | 
CO[C@@H](C)COc1nc(N2CC(C#N)C2)c2cc(C3CC3)c(-c3c(C)c(F)cc4[nH]ncc34)c(OCc3ccc(-c4cn([C@H](C(=O)N5C[C@H](O)C[C@H]5C(=O)N[C@@H](CO)c5ccc(-c6scnc6C)cc5)C(C)C)nn4)cc3)c2n1 (atropisomer, axis not shown) [Example 20] | 14 | 34 | 68 |  |  | 
CO[C@@H](C)COc1nc(N2CCOCC2)c2cc(C3CC3)c(-c3c(C)c(F)cc4[nH]ncc34)c(OCc3ccc(-c4cn([C@H](C(=O)N5C[C@H](O)C[C@H]5C(=O)N[C@@H](CO)c5ccc(-c6scnc6C)cc5)C(C)C)nn4)cc3)c2n1 (atropisomer, axis not shown) [Example 21] | 11 | 19 | 43 |  |  | 
CO[C@@H](C)COc1nc(N[C@H]2C[C@H](OCCN(C)C)C2)c2cc(C3CC3)c(-c3c(C)c(F)cc4[nH]ncc34)c(OCc3ccc(-c4cn([C@H](C(=O)N5C[C@H](O)C[C@H]5C(=O)N[C@@H](CO)c5ccc(-c6scnc6C)cc5)C(C)C)nn4)cc3)c2n1 (atropisomer, axis not shown) [Example 23] | 17 | 107 | 9 |  |  | 
CO[C@@H](C)COc1nc(NC2CN(C(=O)N3CC(CN(C)C)C3)C2)c2cc(C3CC3)c(-c3c(C)c(F)cc4[nH]ncc34)c(OCc3ccc(-c4cn([C@H](C(=O)N5C[C@H](O)C[C@H]5C(=O)N[C@@H](CO)c5ccc(-c6scnc6C)cc5)C(C)C)nn4)cc3)c2n1 (atropisomer, axis not shown) [Example 25] | 16 | 13 | 14 |  |  | 
CO[C@@H](C)COc1nc(NC2CN(C(=S)N3CC(CN(C)C)C3)C2)c2cc(C3CC3)c(-c3c(C)c(F)cc4[nH]ncc34)c(OCc3ccc(-c4cn([C@H](C(=O)N5C[C@H](O)C[C@H]5C(=O)N[C@@H](CO)c5ccc(-n6cncn6)cc5)C(C)C)nn4)cc3)c2n1 (atropisomer, axis not shown) [Example 26] | 7 | 15 | 15 |  |  | 
CO[C@@H](C)COc1cc(OC2CN(C(=O)C3CN(C)C3)C2)c2cc(C3CC3)c(-c3c(C)c(F)cc4[nH]ncc34)c(OCc3ccc(-c4cn([C@H](C(=O)N5C[C@H](O)C[C@H]5C(=O)N[C@@H](CO)c5ccc(-n6cncn6)cc5)C(C)C)nn4)cc3)c2n1 (atropisomer, axis not shown) [Example 42] |  |  |  | 9 | 14 | 10
CO[C@@H](C)COc1nc(NC2CN(C(=O)O[C@H]3C[C@@H](N(C)C)C3)C2)c2cc(C3CC3)c(-c3c(C)c(F)cc4[nH]ncc34)c(OCc3ccc(-c4cn([C@H](C(=O)N5C[C@H](O)C[C@H]5C(=O)N[C@@H](CO)c5ccc(-c6ocnc6C)cc5)C(C)C)nn4)cc3)c2n1 (atropisomer, axis not shown; (M)) [Example 1, (1s,3R)-3-(dimethylamino)cyclobutyl 3-({(7M)-6-cyclopropyl-7-(6-fluoro-5-methyl-1H-indazol-4-yl)-8-{[4-(1-{(2S)-1-[(2S,4R)-4-hydroxy-2-({(1R)-2-hydroxy-1-[4-(4-methyl-1,3-oxazol-5-yl)phenyl]ethyl}carbamoyl)pyrrolidin-1-yl]-3-methyl-1-oxobutan-2-yl}-1H-1,2,3-triazol-4-yl)phenyl]methoxy}-2-[(2S)-2-methoxypropoxy]quinazolin-4-yl}amino)azetidine-1-carboxylate] | 11 | 19 | 28 |  |  | 
